# Numbers after ± are expanded uncertainties.
# How the values were obtained:
# [1] = excess molar enthalpy (molar enthalpy of mixing); xn = mol fraction of the nth substance listed; conditions: 298.15 K, 101 kPa, Liquid, Calvet calorimetry
# [2] = Liquid; for mass density: 298.15 K, 101.33 kPa, Pycnometric method
Compound,excess molar enthalpy ([1]; x1 = 0.095),excess molar enthalpy ([1]; x1 = 0.199),excess molar enthalpy ([1]; x1 = 0.298),excess molar enthalpy ([1]; x1 = 0.403),excess molar enthalpy ([1]; x1 = 0.505),excess molar enthalpy ([1]; x1 = 0.601),excess molar enthalpy ([1]; x1 = 0.703),excess molar enthalpy ([1]; x1 = 0.807),excess molar enthalpy ([1]; x1 = 0.904),mass density [2],Normal boiling temperature ([2]; Distillation)
c1ccncc1 [pyridine] + O,-0.0945 ± 0.00574 kcal/mol,-0.207 ± 0.0124 kcal/mol,-0.261 ± 0.0158 kcal/mol,-0.294 ± 0.0177 kcal/mol,-0.306 ± 0.0184 kcal/mol,-0.295 ± 0.0179 kcal/mol,-0.27 ± 0.0163 kcal/mol,-0.208 ± 0.0127 kcal/mol,-0.0813 ± 0.00502 kcal/mol,–,–
c1ccncc1 [pyridine],–,–,–,–,–,–,–,–,–,981.3 ± 0.9 kg/m3,114.8 ± 1.1 °C
O [water],–,–,–,–,–,–,–,–,–,996.5 ± 0.9 kg/m3,–
